Laboratory results as given in ChEMBL document CHEMBL3507680, “University of Dundee, Gates Library screen for HepG2 cell viability”.

Test: Human HepG2 cell viability assay in 384 well format
Assay type: toxicity, cell-based
Parameters: dose 125 nL, time 70.5 hour; concentration not given beside the values
Details: HepG2 cells, read-out: Inhibition

O=C1CC(N(C(=O)COc2ccc(F)cc2F)C2CC2)C(=O)N1 (stereo not given)
cytotoxicity at 70.5 h: -6.63%

NC(=O)NC(=O)CCSCc1coc(-c2cccc(Cl)c2)n1
cytotoxicity at 70.5 h: -17.3%

O=C1CC(N(C(=O)CCc2cc(F)ccc2F)C2CC2)C(=O)N1 (stereo not given)
cytotoxicity at 70.5 h: -7.39%

Cc1ccccc1S(=O)(=O)NC(=O)C1(c2ccccc2)CCC1
cytotoxicity at 70.5 h: -9.55%

c1ccc(OCCN2CCC(n3cncn3)CC2)cc1
cytotoxicity at 70.5 h: 25.3%

Cc1ccc(S(=O)(=O)NC(=O)C2(c3ccccc3)CCC2)c(C)c1
cytotoxicity at 70.5 h: -10.7%

Cc1ccc(CNC(=O)Cn2c(=O)c3cccnc3n2C)cc1F
cytotoxicity at 70.5 h: -12.5%

COCCNC(=O)NC1(c2ccccc2F)CC1
cytotoxicity at 70.5 h: -5.87%

CC1(C)CN=C(N2CCN(CCCN3CCOCC3)CC2)S1
cytotoxicity at 70.5 h: -8.84%

COc1cccc(OCC(=O)N(C)c2cccnc2N(C)C)c1
cytotoxicity at 70.5 h: -8.02%

Cc1nc(SC2CCN(c3sccc3C#N)C2=O)oc1C (stereo not given)
cytotoxicity at 70.5 h: -1.94%

CCOC1CCCN(C(=O)c2ccccc2NCc2cccnc2)C1 (stereo not given)
cytotoxicity at 70.5 h: 15.9%

CC1(C)CN=C(N2CCN(CC3CCCCO3)CC2)S1 (stereo not given)
cytotoxicity at 70.5 h: 0.00251%

CN(Cc1ccco1)C(=O)CN1CCN(C)c2ccccc2C1
cytotoxicity at 70.5 h: -3%

COc1cccc2c1N(S(=O)(=O)c1cc(C(=O)O)cs1)CCC2
cytotoxicity at 70.5 h: -6.55%

c1ccc(-c2cnc(CNC3CCc4ncnn4C3)o2)cc1 (stereo not given)
cytotoxicity at 70.5 h: 0.0931%

CCc1nnsc1C(=O)N1CCN(CC(O)C(C)(C)C)CC1 (stereo not given)
cytotoxicity at 70.5 h: -10.2%

CC(NC(=O)N1CCC(CC(N)=O)CC1)c1csc2ccccc12 (stereo not given)
cytotoxicity at 70.5 h: -10.8%

O=C(Nc1nnn[nH]1)c1ccc(-n2cccc2)c(F)c1
cytotoxicity at 70.5 h: -9.42%

COCc1cc(N(CC(F)F)C2CC2)n2ncnc2n1
cytotoxicity at 70.5 h: -5.91%

O=C(O)c1csc(S(=O)(=O)N2CCCc3cc(OC(F)F)ccc32)c1
cytotoxicity at 70.5 h: -10.7%

Cc1ccccc1CNCC(O)c1ccc(OC(C)C)cc1 (stereo not given)
cytotoxicity at 70.5 h: -0.135%

O=C(CN1CCOc2ccc(Cl)cc21)NCCCn1ccnc1
cytotoxicity at 70.5 h: -5.4%

O=C(CN1CCOc2ccc(Cl)cc21)NCc1ncc[nH]1
cytotoxicity at 70.5 h: -2.35%

CCCNC(=O)C(C)Nc1ccn(Cc2ccccn2)n1 (stereo not given)
cytotoxicity at 70.5 h: 1.09%

O=C(c1ccc2nncn2c1)N1CCSC2(CCCCC2)C1
cytotoxicity at 70.5 h: 11.5%

CCCN1CCC(Nc2nc(CC)ns2)CC1
cytotoxicity at 70.5 h: -2.52%

CC1(C)CN(C(=O)c2ccc3nncn3c2)CCS1
cytotoxicity at 70.5 h: -5.72%

CCN(C)S(=O)(=O)NCC(O)c1cc2ccccc2s1 (stereo not given)
cytotoxicity at 70.5 h: -0.185%

COC(=O)c1ccc(Cl)c(CN(C)Cc2ncnn2C)c1
cytotoxicity at 70.5 h: 1.01%

Cc1c(F)cccc1S(=O)(=O)NCC(C)(C)CC(C)O (stereo not given)
cytotoxicity at 70.5 h: -5.55%

CN(Cc1cc(Cl)ccc1Cl)Cc1ncnn1C
cytotoxicity at 70.5 h: -1.99%

CC(C)Cc1nc(CN(C)CCOc2ccc(F)cc2)no1
cytotoxicity at 70.5 h: -8.43%

Cc1ccccc1OCCN(C)Cc1noc(CC(C)C)n1
cytotoxicity at 70.5 h: 4.63%

COC(=O)c1cccc(CN(C)Cc2ncnn2C)c1C#N
cytotoxicity at 70.5 h: 28.8%

COC(=O)N1CCCC(C(=O)N2CCCCC2)C1 (stereo not given)
cytotoxicity at 70.5 h: -4.53%

CC(C)Cc1nc(CN(C)CCOc2ccccc2F)no1
cytotoxicity at 70.5 h: 12.5%

Cc1cc(NC(=O)C(C)Nc2ccn(Cc3ccccn3)n2)on1 (stereo not given)
cytotoxicity at 70.5 h: -10.1%

CN(Cc1ccco1)C(=O)CN1CCc2ccccc2C1
cytotoxicity at 70.5 h: -7.16%

CNC(=O)C1CCCN(C(=O)C2CCC2)C1 (stereo not given)
cytotoxicity at 70.5 h: -11.6%

CCSc1cncc(N2CCC(NC(=O)C3CCCCC3)CC2)n1
cytotoxicity at 70.5 h: -13.5%

CCN1CCCCC1C(=O)Nc1cccc(-c2nnc[nH]2)c1 (stereo not given)
cytotoxicity at 70.5 h: -0.846%

CCCN1CCCCC1C(=O)Nc1ccc(-c2nnc[nH]2)cc1 (stereo not given)
cytotoxicity at 70.5 h: -4.51%

O=C(NC1CCN(c2ncccn2)CC1)c1cccc(-n2ccnc2)c1
cytotoxicity at 70.5 h: -7.96%

O=S(=O)(CC1CCCO1)Nc1cc(Cl)ccc1-n1cccn1 (stereo not given)
cytotoxicity at 70.5 h: 2.79%

O=S(=O)(CC1CCCCO1)Nc1cc(F)ccc1-n1cccn1 (stereo not given)
cytotoxicity at 70.5 h: 9.49%

CCCS(=O)(=O)CC(=O)Nc1cc(CC(C)(C)C)n[nH]1
cytotoxicity at 70.5 h: -0.508%

Cn1ccnc(Sc2ccc(O)cc2)c1=O
cytotoxicity at 70.5 h: -14.3%

Cn1ccnc(Sc2cccc(C#N)c2)c1=O
cytotoxicity at 70.5 h: -4.29%

Cc1noc(C)c1C[S+]([O-])Cc1cn2cccc(C)c2n1 (stereo not given)
cytotoxicity at 70.5 h: -4.48%

Cc1ccc(C)c(Sc2nccn(C)c2=O)c1
cytotoxicity at 70.5 h: -10.6%

CCCc1nc(C[S+]([O-])Cc2cn3cccc(C)c3n2)no1 (stereo not given)
cytotoxicity at 70.5 h: -3.84%

CC(=O)c1ccc(CNC(=O)c2cc(C#N)cn2C)nc1C
cytotoxicity at 70.5 h: -4.66%

O=S(=O)(CC1CCCCO1)Nc1c(F)cccc1-n1cccn1 (stereo not given)
cytotoxicity at 70.5 h: -3.07%

O=C(NC1CCN(c2ncccc2F)C1)c1cccc(-n2ccnc2)c1 (stereo not given)
cytotoxicity at 70.5 h: -9.37%

Cc1csc(CCCNC(C)CC(=O)Nc2ccc(F)cc2)n1 (stereo not given)
cytotoxicity at 70.5 h: 5.43%

C=C(C)CNC(C)c1ccc(S(C)(=O)=O)c(F)c1 (stereo not given)
cytotoxicity at 70.5 h: -9.09%

Cc1ccn(-c2ccc(NCc3ccnc(N4CCCCC4)c3)nn2)n1
cytotoxicity at 70.5 h: -10.5%

O=C(COc1ccccc1C(F)(F)F)NCCNC(=O)c1ccccc1
cytotoxicity at 70.5 h: 12.9%

CC(C)c1noc(CS(=O)(=O)CC(=O)NCc2cccs2)n1
cytotoxicity at 70.5 h: -9.72%

COc1ccc(CC(=O)NC(CC(=O)O)c2ccc(F)cc2)cc1OC (stereo not given)
cytotoxicity at 70.5 h: -5.71%

COc1ccccc1CC(=O)NC(CC(=O)O)c1ccc(F)cc1 (stereo not given)
cytotoxicity at 70.5 h: -8.41%

CC(Sc1nnc(C2CC2)n1CC(N)=O)c1ccc(F)c(Cl)c1 (stereo not given)
cytotoxicity at 70.5 h: -6.61%

CC(Sc1nnc(C2CC2)n1CC(N)=O)c1ccc(Cl)cc1 (stereo not given)
cytotoxicity at 70.5 h: -8.5%

NC(=O)C(NC(=O)c1cc(Br)c[nH]1)c1ccccc1 (stereo not given)
cytotoxicity at 70.5 h: 10.8%

CC(C)CC(C#N)NC(=O)c1ccc(Oc2cccnc2)cc1 (stereo not given)
cytotoxicity at 70.5 h: -5.49%

Cc1ccn(-c2ccc(NCc3ccccc3F)nn2)n1
cytotoxicity at 70.5 h: 13.7%

CC(C)Sc1ccc(C(C)NC(=O)Cn2cccnc2=O)cc1 (stereo not given)
cytotoxicity at 70.5 h: -15.1%

O=c1[nH]c(N2CCN(C3CC3)CC2)nc2c1cnn2-c1ccccc1
cytotoxicity at 70.5 h: -6.97%

Cc1ccc(CNC(=O)c2oc3ccccc3c2CN(C)C)n1C
cytotoxicity at 70.5 h: -6.83%

N#Cc1ccc(F)c(CNC(=O)NCCC(=O)NC2CCCC2)c1
cytotoxicity at 70.5 h: -3.12%

CC(C)(C)C(C#N)NC(=O)c1ccc(Oc2cccnc2)cc1 (stereo not given)
cytotoxicity at 70.5 h: -8.31%

Cc1nc(C2CCCN(C(=O)CCCOc3cccc(F)c3)C2)no1 (stereo not given)
cytotoxicity at 70.5 h: -16.6%

O=C(NC1CCN(CC2CC2)C1)c1ccc(N2CCC(O)CC2)cc1 (stereo not given)
cytotoxicity at 70.5 h: -7.24%

CNc1nc(CNC(=O)Nc2ccc(OC(C)C)cc2F)cs1
cytotoxicity at 70.5 h: -5.89%

CN1CCCC(NC(=O)c2ccc(C(=O)c3cc[nH]c3)cc2)C1 (stereo not given)
cytotoxicity at 70.5 h: -16.9%

Cn1cc(C(=O)N2CCOc3ccccc32)ccc1=O
cytotoxicity at 70.5 h: -12.6%

Cc1ccc2c(c1)OCCN2C(=O)c1ccc(=O)n(C)c1
cytotoxicity at 70.5 h: -5.4%

O=C(O)c1ccc(CCNC(=O)C2(O)Cc3ccccc3C2)cc1
cytotoxicity at 70.5 h: -12.7%

COC(=O)CCCNC(=O)COc1ccccc1C(F)(F)F
cytotoxicity at 70.5 h: -6.88%

CC(C)N(CC1CCCN(CC(N)=O)C1)C(=O)OC(C)(C)C (stereo not given)
cytotoxicity at 70.5 h: -12.8%

CCC(CC)CNC(=O)N(C)C(C)c1ccccn1 (stereo not given)
cytotoxicity at 70.5 h: 12.3%

CC(C)c1noc(CCCC(=O)NCCOc2ccccc2)n1
cytotoxicity at 70.5 h: -8.16%

CCN(CC)S(=O)(=O)CCNC(=O)N(C)C(C)c1ccccn1 (stereo not given)
cytotoxicity at 70.5 h: -8.05%

CC(NCc1c(C(C)C)nn(C)c1N(C)C)C(=O)NC1CCCC1 (stereo not given)
cytotoxicity at 70.5 h: -6.36%
